Data on 13 compounds can be found in PMC7892437 (Frontiers in Pharmacology, 2021).

Data set [1] deals with VSV-SARS-CoV-2-Sdel18 pseudovirus. As to the kind of experiment: microbe, parasite or virus in culture. The data set is classed as cell-based.
Data set [2] deals with SARS-CoV-2 BetaCoV/Shenzhen/SZTH-003/2020 strain. In words: microbe, parasite or virus in culture. To be noted: for inhibitory effect relative to Chloroquine diphosphate: authentic SARS-CoV-2 assay, in vitro. The data set is classed as cell-based.
Another data set in a line: in vitro. To be noted: hamster.
In the next data set the test system is Ebola virus. As to conditions: ref Johansen et al., 2013; cited from earlier work.
Another data set relates to VSV-G. It counts as cell-based, vesicular stomatitis virus.
Setting [3] is: Pseudovirus, read-out: Co-treatment IC50.
[4] abbreviates: Pseudovirus, read-out: Pre-treatment IC50.
The mark [5] stands for this setting: Pseudovirus, read-out: Pre-treatment IC90.
[6] abbreviates: Severe acute respiratory syndrome coronavirus 2, Vero, 120 h.
[7] abbreviates: Pseudovirus, read-out: Co-treatment IC90.

Values joined by “and” are separate entries in the source; they are usually repeats but may differ in a detail not shown here. Identical values can stand only once. Like-named read-outs stand apart in the source and are kept apart here.

Consider `CC[C@@H]1/C=C(\C)C[C@H](C)C[C@H](OC)[C@H]2O[C@@](O)(C(=O)C(=O)N3CCCC[C@H]3C(=O)O[C@H](/C(C)=C/[C@@H]3CC[C@H](Cl)[C@H](OC)C3)[C@H](C)[C@@H](O)CC1=O)[C@H](C)C[C@@H]2OC` [Pimecrolimus], for which the IC90 in data set [1] was 32 µM; in data set [1] (Pseudovirus, 12 h), below 50 µM. Also, in data set [1] (Pseudovirus, 12 h), the IC50 was determined as 11.3 µM. Moreover, in the data set on BHK21-hACE2 cells, the “cytotoxicity compared with the other selected drugs” value is recorded as “more serious cytotoxic than other drugs”.

As for `Br.Cc1ccc(Sc2ccccc2N2CCNCC2)c(C)c1` [Vortioxetine (hydrobromide)], in data set [1] (read-out: IC50), the IC50 was 6.99 µM. In addition, in data set [1] (read-out: IC90), the IC90 was < 50 µM and 44.6 µM. In data set [2], the IC50 was 28.1 µM, the IC90 was 62.8 µM and the “inhibitory effect relative to Chloroquine diphosphate” value is given as “slightly less effective”.

For `CCN(CC)CCCC(C)Nc1ccnc2cc(Cl)ccc12` (stereo not shown) [Chloroquine diphosphate], the IC50 in data set [1] (Pseudovirus, 12 h) was 11.6 µM; in data set [1] (setting [3]), 27.6 µM; in data set [1] (setting [4]), 9.27 µM; in data set [2] (setting [6]), 5.33 µM. Also, the IC90 in data set [1] (Pseudovirus, 12 h) is 85.2 µM; in data set [1] (setting [5]), 35.2 µM; in data set [2] (setting [6]) it was 12.9 µM.

Consider `CN1CCN(CCCN2c3ccccc3Sc3ccc(C(F)(F)F)cc32)CC1.Cl.Cl` [Trifluoperazine (dihydrochloride)], for which the IC50 in data set [1] (read-out: IC50) stood at 5.44 µM. Besides, in data set [1] (read-out: IC90), the IC90 was < 50 µM and 27.3 µM. In the data set with BHK21-hACE2 cells, the “cytotoxicity compared with the other selected drugs” value is “more serious cytotoxic than other drugs”.

As for `CN1C[C@@H]2c3ccccc3Oc3ccc(Cl)cc3[C@H]2C1.Cl` (racemic) [Asenapine (hydrochloride)], the figures for the IC90 in data set [1] (read-out: IC90) and in data set [2] were 76.4 µM and 43 µM, respectively. Besides, the cell cytotoxicity entry in the data set with BHK21-hACE2 cells (at the concentration of 100 μM) is given as “no obvious cell cytotoxicity was observed”.

Take `CCN(CC)CCOc1ccc(C(=C(Cl)c2ccccc2)c2ccccc2)cc1` [Clomiphene (citrate)]: the IC90 in data set [1] (setting [7]) is 19.6 µM; in data set [2] (setting [6]), 33.9 µM. The CC50 was determined as 54.4 µM in “in vitro” (Co-treatment CC50) and 24.9 µM in “in vitro” (Pre-treatment CC50).

On to `CN(C)CCOc1ccc(/C(=C(/CCCl)c2ccccc2)c2ccccc2)cc1` [Toremifene (Citrate)], for which the IC50 in data set [1] (read-out: IC50) came to 5.53 µM. In addition, the IC90 in data set [1] (read-out: IC90) stood at 86.5 µM.

Regarding `Cc1ccc(Sc2ccccc2N2CCNCC2)c(C)c1` [Vortioxetine], the IC90 in data set [1] was 46.6 µM; in data set [1] (Pseudovirus, 12 h) it was below 50 µM; in data set [1] (setting [7]) it was 22.3 µM; in data set [1] (setting [5]), 13.8 µM; in data set [2] (setting [6]), 18.3 µM. The IC50 was 7.16 µM in data set [1] (Pseudovirus, 12 h); 6.77 µM in data set [1] (setting [3]); 3 µM in data set [1] (setting [4]); 8.03 µM in data set [2] (setting [6]). In addition, the “inhibitory effect relative to Chloroquine diphosphate” value in data set [2] is “comparable to Chloroquine diphosphate”. Besides, the CC50 in the data set “in vitro” (Co-treatment CC50) is 27.1 µM; in “in vitro” (Pre-treatment CC50), 28.5 µM.

As for `CCCCc1oc2ccccc2c1C(=O)c1cc(I)c(OCCN(CC)CC)c(I)c1.Cl` [Amiodarone (hydrochloride)], the “effect on authentic SARS-CoV-2 virus infection” value in data set [2] (at a concentration of 100 μM) was “no effect”.

Consider `CN(C)c1ccc2nc3ccc(=[N+](C)C)cc-3sc2c1` [Methylene Blue], for which, in data set [1] (Pseudovirus, 12 h), the IC50 was 9.05 µM and it took 70.5 µM to reach the 90% level (IC90).

On to `CCN(CC)CCOc1ccc(C(=C(Cl)c2ccccc2)c2ccccc2)cc1` [Clomiphene], for which the “survival benefit for infected mice” value in the data set with Ebola virus is 90%.

For the compound `CN1CCc2c(c3ccccc3n2Cc2ccccc2)C1` [Mebhydrolin (napadisylate)], the IC50 in data set [1] (read-out: IC50) worked out at 12.1 µM. Further, the IC90 in data set [1] (read-out: IC90) amounted to 133 µM.

In data set [1] (Pseudovirus, 12 h), `NC(=O)c1ncn([C@@H]2O[C@H](CO)[C@@H](O)[C@H]2O)n1` [Ribavirin] yielded an IC50 of 9.29 µM and an IC90 of 62.1 µM. Moreover, the “inhibitory effect on VSV-G” value in the data set on VSV-G is “significant inhibitor effects”.
